Experiments:
Kunming mice = assay: safety in Kunming mice, single intragastric dose, 14 days observation; type: in vivo; settings: 50-2000 mg/kg; for change in body weight (relative body weight Day 14/Day 1): 14 days after administration; for death / signs of intoxication: 14 days observation
Description: In the example, the compounds 16-4 and 17-15 were tested for their safety in Kunming mice.
Kunming mice (with a body weight of 18-22 g) were randomly divided into control group, 16-4 administration group, and 17-15 administration group, with 4 mice for each group, administered at a dose of 0 mg/kg, 50 mg/kg, 500 mg/kg, 1000 mg/kg and 2000 mg/kg. At the first day of experiment, drugs were intragastrically administered to 16-4 administration group and 17-15 administration group, and normal saline was administered to control group. The body weight and physical conditions of mice (for example, being short of breath or not, having bleeding spots in skin or not, etc.) and whether mice died or not were recorded every day. After observation for 14 days, the mice were sacrificed.

TGF-β1-induced LX2 cells [1] = assay: Western blot assay in TGF-β1-induced LX2 cells; type: cell-based, human; settings: TGF-β1 (2 ng/ml)-induced LX2 cells, 1, 5 and 10 μmmol/L, 24 h
Description: (§1) In DMEM (Gibco) medium containing 10% fetal bovine serum, LX2 cells were cultured at 37° C., 5% CO2. The cells were spread on a 6-well plate at 1×10^5 cells per well. After culture for 24 h, the original medium was discarded, the cells were washed with PBS once, and DMEM (Gibco) medium without 10% fetal bovine serum was added. […] After further culture for 24 h, the samples were taken.
Proteins in LX2 cells were extracted with RAPI lysis solution (containing 1% PMSF), and the protein concentration was determined by BCA method. The sample was loaded at 20 μg/20 μL, subjected to polyacrylamide gel electrophoresis, transferred to a membrane, blocked with 5% skim milk, incubated with a primary antibody, washed with PBST, incubated with a secondary antibody, and imaged with ChemiImager 5500 imaging system.

COL1A1 promoter = assay: dual-luciferase reporter assay of COL1A1 promoter activity in LX2 cells; type: cell-based, human; settings: TGF-β1 2 ng/ml, 1, 5 and 10 μmol/L, 24 h
Description: At 37° C., 5% CO2, human hepatic stellate cells LX2 were cultured in DMEM medium containing 10% fetal bovine serum (Gibco). After the cells reached a confluence of about 95%, the cells were spread onto a 96-well plate at 2×10^4 cells per well. After the cells reached a confluence of about 90%, the cells were subjected to serum-free culture in DMEM medium (Gibco) containing no fetal bovine serum for 24 h. […] The cells were further cultured for 24 h. In accordance with the operations described in the instruction of Dual-Glo™ Luciferase Assay System, the medium was discarded, and the cells were washed with PBS once. Cells were lysed by the addition of 1×PLB (20 μL/well) (within 15 min), luciferase substrate (50 μL/well) was added for assay, and a stop solution (50 μL/well) was added for assay.

TGF-β1-induced LX2 cells [2] = assay: real-time PCR assay in TGF-β1-induced LX2 cells; type: cell-based, human; settings: TGF-β1 (2 ng/ml)-induced LX2 cells, 1, 5 and 10 μmmol/L, 24 h
Description: as §1
In accordance with the TRizol method, the total RNA in LX2 cells were extracted, and in accordance with the operations described in the instruction of Roche Transcriptor First Strand cDNA Synthesis Kit, the total RNA of LX2 was reverse transcribed into cDNA. The cDNA obtained, sterile water, Roche FastStart Universal Probe Master (Rox) and ABI TaqMan probes (COL1A1, TGF-β1, MMP2) were used to prepare a 20 μL reaction system, which was analyzed by ABI 7500 Fast Real-Time PCR System.

BDL model rat [3] = assay: serum liver function in BDL model rat; type: in vivo; settings: 100 mg/kg i.p. once a day for 14 days
Description: (§2) SD male rats (with a body weight of 180-200 g) were randomly divided into sham operation group, BDL model group and 16-4 administration group, wherein sham operation group included 6 rats, BDL model group included 8 rats, and 16-4 administration group included 6 rats. Animals were fasted for 12 hours before surgery. After anesthetization with isoflurane, the abdomen of rat was opened under aseptic conditions, the liver was lifted, the duodenum was pulled aside, and 2-3 cm common bile duct was separate. Ligations were performed twice with silk thread No. 000 at the place proximal to duodenum and the place proximal to porta hepatis, respectively. The common bile duct was cut off at the middle of the two ligation places. After the liver was put back, the cut was sutured. In sham operation group, the abdomen was just opened, and then sutured. After recovery from anesthesia, the animals were subjected to normal diet, with free access to water. 2 days after surgery, the compound 16-4 (100 mg/kg) was intraperitoneally injected to 16-4 administration group, and normal saline was intraperitoneally injected to sham operation group and BDL model group, once a day. After administration for 14 days, samples such as urine, blood, bile, liver, kidney and ileum were collected from the animals after being fasted for 12 hours.
Blood samples were taken from rats of each group in Example 6, and the rats were fasted for 12 h before taking samples. The rats were anesthetized with 10% chloral hydrate, and blood was collected via aorta ventralis, on standing at room temperature for 1 h, and centrifuged at 3000 rpm for 5 min. The serum was tested for serum biochemical indexes.

BDL model rat [4] = assay: hydroxyproline content in liver tissue of BDL rats; type: in vivo; settings: 100 mg/kg i.p., 14 days
Description: as §2, with “2 days after surgery, the compound 16-4 (100 mg/kg) was intraperitoneally injected to 16-4 administration group, and normal saline was intraperitoneally injected to sham operation group and BDL model group, once a day. After administration for 14 days, samples such as urine, blood, bile, liver, kidney and ileum were collected from the animals after being fasted for 12 hours.” left out
(2) Hydroxyproline is specific to collagen fibrils, and the content of hydroxyproline can reflect the extent of liver fibrosis. Liver tissue samples (80-100 mg) were taken from the rats of each group in Example 6, and in accordance with the instruction of Hydroxyproline Assay Kit (purchased from Nanjing Jiancheng Bioengineering Institute), the content of hydroxyproline in the liver tissues was determined.

BDL model rat [5] = assay: HE staining of liver tissue of BDL rats; type: in vivo; settings: 100 mg/kg i.p., 14 days
Description: as §2
The liver tissue samples were taken from rats of each group in Example 6, and the rats were fasted for 12 hours before taking samples. The rats were anesthetized with 10% chloral hydrate and the liver tissue was taken. The hepatic lobar tissue blocks were cut off and fixed in 4% neutral formaldehyde solution. By carrying out the steps such as dehydration, paraffin embedding, slicing and baking, paraffin slices were made. Hematoxylin-eosin (HE) staining solution was used for staining, and changes in pathological structure of rat liver tissue were observed.

[6] = system: ANIT-induced liver injury; assay: alpha-naphthylisothiocyanate (ANIT)-induced liver injury model, HE staining; type: in vivo, mouse; settings: 400 mg/kg intragastric, ANIT 75 mg/kg, 48 h after induction
Description: After further administration for 2 days (i.e. after induction with ANIT for 48 h), liver tissues were harvested, and subjected to pathological section and HE staining.

BDL model rat [7] = assay: real-time PCR of genes associated with liver fibrosis in liver tissue of BDL rats; type: in vivo; settings: 100 mg/kg i.p., 14 days
Description: as §2, with “2 days after surgery, the compound 16-4 (100 mg/kg) was intraperitoneally injected to 16-4 administration group, and normal saline was intraperitoneally injected to sham operation group and BDL model group, once a day. After administration for 14 days, samples such as urine, blood, bile, liver, kidney and ileum were collected from the animals after being fasted for 12 hours.” left out
Liver tissues (80-100 mg) were taken from the rats of each group in Example 6, and 1 mL TRizol was added. […] The cDNA obtained, sterile water, Roche FastStart Universal Probe Master (Rox) and ABI TaqMan probes were used to prepare a 20 μL reaction system, which was analyzed by ABI 7500 Fast Real-Time PCR System.

BDL model rat [8] = assay: Masson staining of liver tissue of BDL rats; type: in vivo; settings: 100 mg/kg i.p., 14 days
Description: as §2, with “hours. […]” for “hours.”

BDL model rat [9] = assay: Western blot of proteins associated with liver fibrosis in liver tissue of BDL rats; type: in vivo; settings: 100 mg/kg i.p., 14 days
Description: as §2, with “After administration for 14 days, samples such as urine, blood, bile, liver, kidney and ileum were collected from the animals after being fasted for 12 hours.” left out
Liver tissues (80-100 mg) were taken from the rats of each group in Example 6, and 1 mL RAPI lysis solution (containing 1% PMSF) was added. […] The supernatant was taken, and the protein concentration was determined by BCA method. […]

| SMILES | change in body weight (relative body weight Day 14/Day 1) (Kunming mice) | death (Kunming mice) | signs of intoxication (Kunming mice) | expression of COL1A1, TGF-β1, MMP2 and α-SMA protein (TGF-β1-induced LX2 cells [1]) | activity of COL1A1 promoter (relative luciferase activity) (COL1A1 promoter) | expression levels of mRNA of COL1A1, TGF-β1 and MMP2 (TGF-β1-induced LX2 cells [2]) | liver function of BDL rats (BDL model rat [3]) | alanine aminotransferase ALT (BDL model rat [3]; serum, BDL rat, n = 6) [U/L] | alkaline phosphatase ALP (BDL model rat [3]; serum, BDL rat, n = 6) [U/L] | γ-glutamyltransferase γ-GGT (BDL model rat [3]; serum, BDL rat, n = 6) [U/L] | content of hydroxyproline in rat liver tissues (BDL model rat [4]) | bile duct proliferation (BDL model rat [5]) | pathological structure of the liver tissues (BDL model rat [5]) | tissue necrosis (BDL model rat [5]) | liver injury (HE staining of liver tissue slices) compared to ANIT-induced group [6] | expression of genes associated with liver fibrosis (COL1A1, TGF-β1, MMP2, α-SMA (ACTA2), TIMP1, TIMP2 and SPP1) (BDL model rat [7]) | fibrosis of liver tissues (Masson staining) (BDL model rat [8]) | expression of COL1A1, TGF-β1, MMP2 and α-SMA protein (BDL model rat [9]) |
| --- | --- | --- | --- | --- | --- | --- | --- | --- | --- | --- | --- | --- | --- | --- | --- | --- | --- | --- |
| O=C(Nc1ccc(Cl)c(Cl)c1)c1ccccc1NS(=O)(=O)c1cccc(OC(F)(F)F)c1 [17-15, N-(3,4-dichlorophenyl)-2-(3-trifluoromethoxybenzenesulfonamido) benzamide] | no significant decrease in body weight | no death occurred | no signs of intoxication were observed | significantly inhibit | inhibit the activity of COL1A1 promoter in a dose-dependent manner | significantly inhibit |  |  |  |  |  |  |  |  |  |  |  |  |
| O=C(Nc1cc(Cl)c(Cl)c(Cl)c1)c1ccccc1NS(=O)(=O)c1cccc([N+](=O)[O-])c1 [16-4, N-(3,4,5-trichlorophenyl)-2-(3-nitrobenzenesulfonamido) benzamide] | no significant decrease in body weight | no death occurred | no signs of intoxication were observed | significantly inhibit | inhibit the activity of COL1A1 promoter in a dose-dependent manner | significantly inhibit | could improve the liver function | 68.20 ± 11.86 | 383.60 ± 56.45 | 27.40 ± 10.26 | significantly reduce | significantly inhibited bile duct proliferation | significantly improve | significantly reduced tissue necrosis | had the liver injury improved | significantly reduce | significantly inhibit the fibrosis of liver tissues | significantly inhibit |
